# Results from US20250129119A1, “PEPTIDE HAVING ANTI-INFLAMMATORY ACTIVITY AND USE THEREOF” (CAREGEN CO., LTD., priority 2021, published 2025).
# Tests used:
# Format in all cases: cell-based
# [1] = system: COX2 and INFγ mRNA expression induced by LPS in splenocytes; experiment: RT-PCR of inflammatory gene mRNA in LPS-stimulated splenocytes; conditions: mouse splenocytes; peptide 5 μM and 50 μM; LPS 2 μg/mL; 3 hours; FIG. 1
# Protocol: In order to confirm the effect of the peptides of the present invention synthesized in Synthesis Example 1 on the inflammatory response induced by LPS, the expression levels of mRNA of inflammatory cytokines COX2 and INFγ were measured by RT-PCR.
# (§1) Specifically, 6-7 week old mice (C57BL/6, Young Bio Co., Ltd.) were sacrificed to obtain spleens, which were crushed using a cell strainer, and then centrifuged along with serum-free RPMI-1640 medium. The supernatant was discarded and red blood cells (RBCs) were removed twice using RBC lysis buffer. Then, after washing the resultant with serum-free RPMI-1640 medium, an appropriate amount of serum-free RPMI-1640 medium was added. The number of mouse splenocytes was measured, and the cells were inoculated into a 24-well plate at a density of 1×10^7 cells/well, and cultured overnight. Next day, the medium was replaced with serum-free medium and the cells were cultured for 4 hours, and then treated with the peptide of the present invention (5 μM and 50 μM) and LPS (2 μg/mL), which is an inflammation-inducing substance, as a stimulant, and cultured for 3 additional hours.
# Next, cells were recovered after culture, and total RNA was extracted using an RNA extraction kit (Qiagen RNeasy kit), and after RNA quantification, cDNA was synthesized using a cDNA synthesis kit (Intron, Korea). […]
# [2] = system: secretion of TNF-α, IFN-γ and IL-17 induced by LPS in splenocytes; experiment: ELISA of cytokine secretion in LPS-stimulated splenocytes; conditions: mouse splenocytes, peptide 5 μM and 50 μM, LPS 2 μg/mL, 24 hours
# Protocol: In order to confirm the effect of the peptides of the present invention synthesized in Synthesis Example 1 on the inflammatory response induced by LPS, the secretion amounts of inflammatory cytokines TNF-α, IL-17, and INFγ were measured by ELISA.
# as §1, with “centrifuged” for “centrifuged along”, “added thereto.” for “added.”, “24” for “3”
# (§2) Next, the cell culture was recovered after cultivation, and the amounts of secretion of IL-17, IFN-γ, and TNF-α, which are secretion markers during Th17 differentiation, were measured using an ELISA kit (Quantikine ELISA Kit, R&D System, USA) specific to IL-17, IFN-γ, and TNF-α, and the absorbance was measured using Spectramax M2 (Molecular Devices).
# [3] = system: secretion of TNF-α, IL-1β and INFγ induced by TNF-α in splenocytes; experiment: ELISA of cytokine secretion in TNF-α-stimulated splenocytes; conditions: mouse splenocytes, peptide 5 μM and 50 μM, TNF-α 20 nM, 24 hours
# Protocol: In order to confirm the effect of the peptides of the present invention synthesized in Synthesis Example 1 on the inflammatory response induced by TNF-α, the secretion amounts of TNF-α, IL-1β, and INFγ, which are inflammatory cytokines, were measured by ELISA.
# as §1, with “centrifuged” for “centrifuged along”, “added thereto.” for “added.”, “TNF-α (20 nM),” for “LPS (2 μg/mL),”, “24” for “3”
# as §2, with “TNF-α, IL-1β,” for “IL-17, IFN-γ,”, “INFγ,” for “TNF-α,”, “inflammatory cytokines,” for “secretion markers during Th17 differentiation,”
# [4] = system: secretion of INFγ induced by LPS, TGF-β, and IL-23 in splenocytes; experiment: ELISA of INFγ secretion in splenocytes stimulated with LPS, TGF-β and IL-23; conditions: mouse splenocytes; peptide 5 μM and 50 μM; LPS 2 μg/mL, TGF-β 20 ng/mL, IL-23 20 ng/mL; 24 hours; FIG. 4
# Protocol: In order to confirm the effect of the peptides of the present invention synthesized in Synthesis Example 1 on the inflammatory response induced by LPS, TGF-β, and IL-23, the secretion amount of INFγ, which is an inflammatory cytokine, was measured by ELISA.
# (§3) Specifically, 6-7 week old mice (C57BL/6, Young Bio Co., Ltd.) were sacrificed to obtain spleens, which were crushed using a cell strainer, and then centrifuged with serum-free RPMI-1640 medium. The supernatant was discarded and red blood cells (RBCs) were removed twice using RBC lysis buffer. Then, after washing the resultant with serum-free RPMI-1640 medium, an appropriate amount of serum-free RPMI-1640 medium was added thereto. The number of mouse splenocytes was measured, and the cells were inoculated into a 24-well plate at a density of 1×10^7 cells/well, and cultured overnight. […]
# Next, the cell culture was recovered after cultivation, and the amount of secretion of INFγ, which is an inflammatory cytokine, was measured using an ELISA kit (Quantikine ELISA Kit, R&D System, USA) specific to INFγ, and the absorbance was measured using Spectramax M2 (Molecular Devices).
# [5] = system: secretion of IL-17 induced by TNF-α and IL-17A in splenocytes; experiment: ELISA of IL-17 secretion in splenocytes stimulated with TNF-α and IL-17A; conditions: mouse splenocytes; peptide 5 μM and 50 μM; TNF-α 20 nM and IL-17A 200 ng/mL; 24 hours; FIG. 5
# Protocol: In order to confirm the effect of the peptides of the present invention synthesized in Synthesis Example 1 on the inflammatory response induced by TNF-α and IL-17A, the secretion amount of IL-17, which is an inflammatory cytokine, was measured by ELISA.
# as §3, with “mice” for “mice (C57BL/6, Young Bio Co., Ltd.)”
# Next, the cell culture was recovered after cultivation, and the amount of secretion of IL-17, which is an inflammatory cytokine, was measured using an ELISA kit (Quantikine ELISA Kit, R&D System, USA) specific to […], and the absorbance was measured using Spectramax M2 (Molecular Devices).
# [6] = system: TNF-α, COX2, IL-6 and IL-8 mRNA expression in human keratinocytes HaCaT; experiment: RT-PCR of inflammatory gene mRNA in HaCaT keratinocytes stimulated with TNF-α and hIL-17A; conditions: peptide 5 μM and 50 μM, TNF-α 10 nM and hIL-17A 200 ng/mL, one hour, FIG. 6
# Protocol: In order to confirm the effect of the peptides of the present invention synthesized in Synthesis Example 1 on Th17-mediated inflammatory responses, the mRNA expression levels of TNF-α, COX2, IL-6, and IL-8 were measured by RT-PCR.
# (§4) Specifically, the number of human keratinocytes HaCaT (CLS Cell Lines Service)) was measured, and the cells were inoculated into a 24-well plate at a density of 3×10^5 cells/well, and cultured overnight. Next day, the medium was replaced with serum-free medium and the cells were cultured for 4 hours, and then treated with the peptide of the present invention (5 μM and 50 μM) and TNF-α (10 nM) and hIL-17A (200 ng/mL), which are Th17 type inflammation-inducing cytokines, used as a stimulant, and cultured for one additional hour.
# Next, cells were recovered after culture, and total RNA was extracted using an RNA extraction kit (Qiagen RNeasy kit), and after RNA quantification, cDNA was synthesized using a cDNA synthesis kit (Intron, Korea). A polymerase chain reaction (PCR) was performed by mixing a PCR premix (Intron, Korea), synthesized cDNA, and primers shown in [Table 3] below specific for each of the genes of TNF-α, COX2, IL-6, IL-8, and GAPDH. PCR products were electrophoresed on a 5% agarose gel and stained with ethidium bromide to confirm the mRNA expression levels of TNF-α, COX2, IL-6, and IL-8, which are genes associated with inflammation and autoimmune diseases.
# [7] = system: iNOS and pJNK in human keratinocytes HaCaT; experiment: Western blot of iNOS and pJNK in HaCaT keratinocytes stimulated with TNF-α and hIL-17A; conditions: peptide 5 μM and 50 μM, TNF-α 10 nM and hIL-17A 200 ng/mL, 24 hours, FIG. 7
# Protocol: In order to confirm the effect of the peptides of the present invention synthesized in Synthesis Example 1 on Th17-mediated inflammatory responses, the degree of phosphorylation of iNOS and pJNK, which are inflammation-inducing factors and signaling proteins, was measured by Western blot.
# as §4, with “[…]” for “3×10^5”, “cytokines,” for “cytokines, used”, “24” for “one”, “hours.” for “hour.”
# After cultivation, the cells were recovered to prepare a cell lysate, and a western blot was performed using antibodies against iNOS and pJNK (Cell Signaling Technology, USA) to confirm the patterns of protein expression.
sequence,measurement,setting,value
SVSVGMKPSPRP [peptide of the present invention],mRNA expression of COX2 (RT-PCR),[1],significantly reduce
same,mRNA expression of INFγ (RT-PCR),[1],significantly reduce
same,secretion of TNF-α (ELISA),[2]; FIG. 2A,significantly reduce
same,secretion of IFN-γ (ELISA),[2]; FIG. 2B,significantly reduce
same,secretion of IL-17 (ELISA),[2]; FIG. 2C,significantly reduce
same,secretion of TNF-α (ELISA),[3]; FIG. 3A,significantly reduce
same,secretion of IL-1β (ELISA),[3]; FIG. 3B,significantly reduce
same,secretion of INFγ (ELISA),[3]; FIG. 3C,significantly reduce
same,secretion of INFγ (ELISA),[4],significantly reduce
same,secretion of IL-17 (ELISA),[5],significantly reduce
same,mRNA expression of COX2 (RT-PCR),[6],significantly reduce
same,mRNA expression of IL-6 (RT-PCR),[6],significantly reduce
same,mRNA expression of IL-8 (RT-PCR),[6],significantly reduce
same,mRNA expression of TNF-α (RT-PCR),[6],significantly reduce
same,iNOS protein expression (Western blot),[7],reduce
same,phosphorylation of JNK (Western blot),[7],reduce
